Results published in ChEMBL document CHEMBL1130293, “Studies on the active conformation of the NK1 antagonist CGP 49823. Part 21. Fluoro-olefin analogs of tertiary amide rotamers” (Bioorg Med Chem Lett, 1997).

Biological target: Substance-P receptor (Homo sapiens, UniProt P25103)
Assay: Tested for the binding affinity against neurokinin NK1 receptor

Sequence of Substance-P receptor (P25103 whole entry): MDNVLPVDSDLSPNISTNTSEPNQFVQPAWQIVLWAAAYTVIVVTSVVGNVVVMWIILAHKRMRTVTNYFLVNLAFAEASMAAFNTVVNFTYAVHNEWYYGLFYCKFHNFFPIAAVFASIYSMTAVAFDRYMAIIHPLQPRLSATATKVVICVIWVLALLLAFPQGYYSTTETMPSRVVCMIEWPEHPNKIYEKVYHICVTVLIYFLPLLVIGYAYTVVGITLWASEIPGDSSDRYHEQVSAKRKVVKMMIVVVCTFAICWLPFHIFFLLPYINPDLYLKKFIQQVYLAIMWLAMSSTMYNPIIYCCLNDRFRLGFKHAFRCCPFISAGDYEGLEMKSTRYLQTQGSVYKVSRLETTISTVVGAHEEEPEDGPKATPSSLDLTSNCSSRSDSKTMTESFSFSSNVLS

| SMILES | IC50 [nM] |
| --- | --- |
| Cc1cc(C)cc(/C(F)=C2/CC[C@H](NC(=O)c3ccnc4ccccc34)C[C@H]2Cc2ccccc2)c1 | 380 |
| Cc1cc(C)cc(/C(F)=C2\CC[C@@H](NC(=O)c3ccnc4ccccc34)C[C@@H]2Cc2ccccc2)c1 | 270 |
| Cc1cc(C)cc(/C(F)=C2/CCC(NC(=O)c3ccnc4ccccc34)CC2Cc2ccccc2)c1 (racemic) | 710 |

Second part, the molecule after the results:

| IC50 [nM] | SMILES |
| --- | --- |
| 15 | Cc1cc(C)cc(C(=O)N2CC[C@H](NC(=O)c3ccnc4ccccc34)C[C@H]2Cc2ccccc2)c1 |
| 620 | Cc1cc(C)cc(/C(F)=C2\CCC(NC(=O)c3ccnc4ccccc34)CC2Cc2ccccc2)c1 (racemic) |
| > 10000 | Cc1cc(C)cc(/C(F)=C2\CC[C@H](NC(=O)c3ccnc4ccccc34)C[C@H]2Cc2ccccc2)c1 |
| > 10000 | Cc1cc(C)cc(/C(F)=C2/CC[C@@H](NC(=O)c3ccnc4ccccc34)C[C@@H]2Cc2ccccc2)c1 |
